Laboratory results as given in US9796700B2 (Celgene CAR LLC, priority 2013, dated 2017).

Target: Erk1 (Homo sapiens (Human), UniProt P27361)
Assay: Protein Mass Modification Assay (intact protein MALDI)
Assay type: binding
Summary of the method: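 Percent covalent modification comes from the intact-protein MALDI centroid mass shift, treated versus control, divided by compound MW. Before analysis, human Erk1 was exposed to compound at 10-fold excess over protein for 60 min at room temperature.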

Erk1, sequence (P27361 whole entry, looked up): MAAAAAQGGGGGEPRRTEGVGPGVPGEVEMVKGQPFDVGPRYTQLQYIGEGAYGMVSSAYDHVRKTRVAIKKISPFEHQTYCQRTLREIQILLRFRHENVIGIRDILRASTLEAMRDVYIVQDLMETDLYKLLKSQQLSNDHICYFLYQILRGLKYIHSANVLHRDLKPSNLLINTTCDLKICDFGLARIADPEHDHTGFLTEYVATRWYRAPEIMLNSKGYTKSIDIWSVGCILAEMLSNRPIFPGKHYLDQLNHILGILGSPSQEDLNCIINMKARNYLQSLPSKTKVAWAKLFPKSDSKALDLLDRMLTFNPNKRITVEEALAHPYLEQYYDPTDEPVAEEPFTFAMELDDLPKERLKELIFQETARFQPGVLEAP

C=CC(=O)Nc1ccccc1Nc1nc(Nc2ccc(N3CCOCC3)cc2OC)ncc1N [Compound I-144, N-(2-((5-amino-2-((2-methoxy-4-morpholinophenyl)amino)pyrimidin-4-yl)amino)phenyl) acrylamide]
ERK1 Mass Mod (%): F (provided a mass modification of 31-69%)

C=CC(=O)Nc1ccccc1Nc1nc(Nc2ccc3c(c2OC)CCCC(=O)N3CCN2CCOCC2)ncc1Cl [Compound I-145, N-(2-((5-chloro-2-((6-methoxy-1-(2-morpholinoethyl)-2-oxo-2,3,4,5-tetrahydro-1H-benzo[b]azepin-7-yl)amino)pyrimidin-4-yl)amino)phenyl)acrylamide]
ERK1 Mass Mod (%): E (provided a mass modification of ≧70%)

C=CC(=O)Nc1ccccc1Nc1nc(Nc2ccc3c(c2OC)CCCC(=O)N3CCCN2CCOCC2)ncc1Cl [Compound I-146, N-(2-((5-chloro-2-((6-methoxy-1-(3-morpholinopropyl)-2-oxo-2,3,4,5-tetrahydro-1H-benzo[b]azepin-7-yl)amino)pyrimidin-4-yl)amino)phenyl)acrylamide]
ERK1 Mass Mod (%): E (provided a mass modification of ≧70%)

C=CC(=O)Nc1ccccc1Nc1nc(Nc2ccc3c(c2OC)CCCC(=O)N3CCCNC(=O)OC(C)(C)C)ncc1Cl [Compound I-147, tert-butyl (3-(7-((4-((2-acrylamidophenyl)amino)-5-chloropyrimidin-2-yl)amino)-6-methoxy-2-oxo-2,3,4,5-tetrahydro-1H-benzo[b]azepin-1-yl)propyl)carbamate]
ERK1 Mass Mod (%): E (provided a mass modification of ≧70%)

C=CC(=O)Nc1ccccc1Nc1nc(Nc2ccc3c(c2OC)CCCC(=O)N3CCCN)ncc1Cl [Compound I-148, N-(2-((2-((1-(3-aminopropyl)-6-methoxy-2-oxo-2,3,4,5-tetrahydro-1H-benzo[b]azepin-7-yl)amino)-5-chloropyrimidin-4-yl)amino)phenyl)acrylamide]
ERK1 Mass Mod (%): E (provided a mass modification of ≧70%)

C=CC(=O)Nc1ccccc1Nc1nc(Nc2ccc(N(CC)C(C)=O)cc2OC)ncc1Cl [Compound I-155, N-(2-((5-chloro-2-((4-(N-ethylacetamido)-2-methoxyphenyl)amino)pyrimidin-4-yl)amino)phenyl)acrylamide]
ERK1 Mass Mod (%): E (provided a mass modification of ≧70%)

C=CC(=O)Nc1cc(OC)ccc1Nc1nc(Nc2ccc(N3CCCN(C(=O)OC(C)(C)C)CC3)cc2C#N)ncc1Cl [Compound I-156, tert-butyl 4-(4-((4-((2-acrylamido-4-methoxyphenyl)amino)-5-chloropyrimidin-2-yl)amino)-3-cyanophenyl)-1,4-diazepane-1-carboxylate]
ERK1 Mass Mod (%): E (provided a mass modification of ≧70%)

C=CC(=O)Nc1cc(OC)ccc1Nc1nc(Nc2ccc(N3CCC[C@H]3CO)cc2C#N)ncc1Cl [Compound I-163, (S)—N-(2-((5-chloro-2-((2-cyano-4-(2-(hydroxymethyl)pyrrolidin-1-yl)phenyl)amino)pyrimidin-4-yl)amino)-5-methoxyphenyl)acrylamide]
ERK1 Mass Mod (%): E (provided a mass modification of ≧70%)

C=CC(=O)Nc1cc(OC)ccc1Nc1nc(Nc2ccc(N(CC)C(C)=O)cc2C#N)ncc1Cl [Compound I-164, N-(2-((5-chloro-2-((2-cyano-4-(N-ethylacetamido)phenyl)amino)pyrimidin-4-yl)amino)-5-methoxyphenyl)acrylamide]
ERK1 Mass Mod (%): E (provided a mass modification of ≧70%)

C=CC(=O)Nc1cc(OC)ccc1Nc1nc(Nc2ccc3c(c2)CC(=O)N3CC)ncc1Cl [Compound I-166, N-(2-((5-chloro-2-((1-ethyl-2-oxoindolin-5-yl)amino)pyrimidin-4-yl)amino)-5-methoxyphenyl)acrylamide]
ERK1 Mass Mod (%): E (provided a mass modification of ≧70%)

C=CC(=O)Nc1ccccc1Nc1nc(Nc2ccc(N(CCCN)C(C)=O)cc2OC)ncc1Cl [Compound I-167, N-(2-((2-((4-(N-(3-aminopropyl)acetamido)-2-methoxyphenyl)amino)-5-chloropyrimidin-4-yl)amino)phenyl)acrylamide]
ERK1 Mass Mod (%): E (provided a mass modification of ≧70%)

C=CC(=O)Nc1ccccc1Nc1nc(Nc2ccc(N(CCN)C(C)=O)cc2OC)ncc1Cl [Compound I-168, N-(2-((2-((4-(N-(2-aminoethyl)acetamido)-2-methoxyphenyl)amino)-5-chloropyrimidin-4-yl)amino)phenyl)acrylamide]
ERK1 Mass Mod (%): E (provided a mass modification of ≧70%)

C=CC(=O)Nc1ccccc1Nc1nc(Nc2ccc(N(CCCNC(=O)OC(C)(C)C)C(C)=O)cc2C(F)(F)F)ncc1Cl [Compound I-169, tert-butyl (3-(N-(4-((4-((2-acrylamidophenyl)amino)-5-chloropyrimidin-2-yl)amino)-3-(trifluoromethyl)phenyl)acetamido)propyl)carbamate]
ERK1 Mass Mod (%): E (provided a mass modification of ≧70%)

C=CC(=O)Nc1ccccc1Nc1nc(Nc2ccc(N(CCCNC(=O)OC(C)(C)C)C(C)=O)cc2OC)ncc1Cl [Compound I-173]
ERK1 Mass Mod (%): E (provided a mass modification of ≧70%)

C=CC(=O)Nc1ccccc1Nc1nc(Nc2ccc(N(CCNC(=O)OC(C)(C)C)C(C)=O)cc2OC)ncc1Cl [Compound I-174, tert-butyl (2-(N-(4-((4-((2-acrylamidophenyl)amino)-5-chloropyrimidin-2-yl)amino)-3-methoxyphenyl)acetamido)ethyl)carbamate]
ERK1 Mass Mod (%): E (key: E: provided a mass modification of ≧70%; F: provided a mass modification of 31-69%; G: proived a mass modification ≦30%)

C=CC(=O)Nc1cc(OC)ccc1Nc1nc(Nc2ccc(N(CC)C(C)=O)cc2OC)ncc1Cl [Compound I-175, N-(2-((5-chloro-2-((4-(N-ethylacetamido)-2-methoxyphenyl)amino)pyrimidin-4-yl)amino)-5-methoxyphenyl)acrylamide]
ERK1 Mass Mod (%): E (provided a mass modification of ≧70%)

C=CC(=O)Nc1cc(OC)ccc1Nc1nc(Nc2ccc(N(CC)C(C)=O)cc2C(F)(F)F)ncc1Cl [Compound I-176, N-(2-((5-chloro-2-((4-(N-ethylacetamido)-2-(trifluoromethyl)phenyl)amino)pyrimidin-4-yl)amino)-5-methoxyphenyl)acrylamide]
ERK1 Mass Mod (%): E (provided a mass modification of ≧70%)

C=CC(=O)Nc1ccccc1Nc1nc(Nc2ccc(N3CCC[C@H]3C(N)=O)cc2C#N)ncc1Cl [Compound I-177, (S)-1-(4-((4-((2-acrylamidophenyl)amino)-5-chloropyrimidin-2-yl)amino)-3-cyanophenyl)pyrrolidine-2-carboxamide]
ERK1 Mass Mod (%): E (provided a mass modification of ≧70%)

C=CC(=O)Nc1cc(OC)ccc1Nc1nc(Nc2ccc(N3CCC[C@H]3C(N)=O)cc2C#N)ncc1Cl [Compound I-178, (S)-1-(4-((4-((2-acrylamido-4-methoxyphenyl)amino)-5-chloropyrimidin-2-yl)amino)-3-cyanophenyl)pyrrolidine-2-carboxamide]
ERK1 Mass Mod (%): E (provided a mass modification of ≧70%)

C=CC(=O)Nc1ccccc1Nc1nc(Nc2ccc(N3CCC[C@@H]3C(N)=O)cc2C#N)ncc1Cl [Compound I-179, (R)-1-(4-((4-((2-acrylamidophenyl)amino)-5-chloropyrimidin-2-yl)amino)-3-cyanophenyl)pyrrolidine-2-carboxamide]
ERK1 Mass Mod (%): E (provided a mass modification of ≧70%)

C=CC(=O)Nc1cc(OC)ccc1Nc1nc(Nc2ccc(N3CCC[C@@H]3C(N)=O)cc2C#N)ncc1Cl [Compound I-180, (R)-1-(4-((4-((2-acrylamido-4-methoxyphenyl)amino)-5-chloropyrimidin-2-yl)amino)-3-cyanophenyl)pyrrolidine-2-carboxamide]
ERK1 Mass Mod (%): E (provided a mass modification of ≧70%)

C=CC(=O)Nc1cc(OC)ccc1Nc1nc(Nc2ccc(N3CCC[C@@H]3CO)cc2C#N)ncc1Cl [Compound I-181, (R)—N-(2-((5-chloro-2-((2-cyano-4-(2-(hydroxymethyl)pyrrolidin-1-yl)phenyl)amino)pyrimidin-4-yl)amino)-5-methoxyphenyl)acrylamide]
ERK1 Mass Mod (%): E (provided a mass modification of ≧70%)

C=CC(=O)Nc1ccccc1Nc1nc(Nc2ccc(NC(=O)COC(C)=O)cc2OC)ncc1Cl [Compound I-183, 2-((4-((4-((2-acrylamidophenyl)amino)-5-chloropyrimidin-2-yl)amino)-3-methoxyphenyl)amino)-2-oxoethyl acetate]
ERK1 Mass Mod (%): E (provided a mass modification of ≧70%)

C=CC(=O)Nc1ccccc1Nc1nc(Nc2ccc(NS(C)(=O)=O)cc2OC)ncc1Cl [Compound I-185, N-(2-((5-chloro-2-((2-methoxy-4-(methylsulfonamido)phenyl)amino)pyrimidin-4-yl)amino)phenyl)acrylamide]
ERK1 Mass Mod (%): E (provided a mass modification of ≧70%)

C=CC(=O)Nc1ccccc1Nc1nc(Nc2ccc(NC(=O)CO)cc2OC)ncc1Cl [Compound I-186, N-(2-((5-chloro-2-((4-(2-hydroxyacetamido)-2-methoxyphenyl)amino)pyrimidin-4-yl)amino)phenyl)acrylamide]
ERK1 Mass Mod (%): E (provided a mass modification of ≧70%)

C=CC(=O)Nc1ccccc1Nc1nc(Nc2cc(C(=O)NOCCO)ccc2OC)ncc1Cl [Compound I-194, 3-((4-((2-acrylamidophenyl)amino)-5-chloropyrimidin-2-yl)amino)-N-(2-hydroxyethoxy)-4-methoxybenzamide]
ERK1 Mass Mod (%): E (provided a mass modification of ≧70%)

C=CC(=O)Nc1ccccc1Nc1nc(Nc2cc(C(=O)NOC)ccc2C#N)ncc1Cl [Compound I-195, 3-((4-((2-acrylamidophenyl)amino)-5-chloropyrimidin-2-yl)amino)-4-cyano-N-methoxybenzamide]
ERK1 Mass Mod (%): E (provided a mass modification of ≧70%)
